Experimental data from patent US20250134897A1, “PREPARATION OF IS[…] KETO[…] METHODS OF HYPERPO[…] SIGNAL AMP[…] […] (SABRE)” (The United States of America,as represented by the …, priority 2022, published 2025).

Assays:
[1] = 13C-1 spin-lattice relaxation time (T1) at 3 T MRI system; format: physicochemical; settings: 3 T MRsolution MRI system, solutions of DPBS with EDTA
[2] = SABRE-SHEATH 13C hyperpolarization, single-scan 13C NMR; format: physicochemical; settings: 10 mM substrate, 45 mM DMSO, 7.8 mM Ir-IMes catalyst in methanol-d4; 55 s p-H2 bubbling at BT=−0.2 μT; ~50% p-H2; acquired after transfer to 1 T
Excerpt: Ultra-high-purity hydrogen gas (Airgas) was fed into a Para-Hydrogen (pH2) flow cryostat (Xeus technology LTD) and enriched to about 50% parahydrogen in the presence of a spin-exchange catalyst (Fe2O3) at liquid nitrogen temperature (77 K). The pH2 flow was directed via PTFE tubing to a mass flow controller (MFC, Sierra Instruments SmartTrak 100 series) set at 90 ssc/m and directed to a conventional 5 mm NMR tube (Norell) to allow bubbling through the sample. The entire pH2 line was pressurized to 96 psi.
At least once a day, the shield was degaussed using internal coils driven by a Variac. The solenoid has 41 mm diameter (40 mm core, 20 cm long windings with 220 turns AWG20 (0.9 mm) Cu wire and with 220Ω resistor in series. The solenoid coil was driven by commercial 1.5V batteries with a variable-resistance decade box in series to provide finer control of the internal magnetic field inside the shield. Typical values of the field within the shield were between […], with SABRE SHEATH experiments typically between 0.5 μT and 0.8 μT in the sample region. The values were monitored between SABRE experiments using a Lakeshore Cryotronics Gaussmeter (Model No. 475 DSP with HMMA-2512-VR Hall Probe.
NMR experiments were performed using a 1 T Magritek Spinsolve benchtop NMR spectrometer. […]

Compound | T1 after flip angle correction (spin-lattice relaxation time) [1] [s] | apparent T1 (spin-lattice relaxation time) ([1]; without flip angle correction) [s] | polarization P(13C) [2] [%]
O=C(O)CCC(=O)C(=O)O [2-Oxopentanedioic-5-^12C-1-^13C acid] | 63.0 ± 0.835 | 32.1 ± 0.824 | 
O=C(CC[12C](=O)[O-])[13C](=O)[O-].[Na+].[Na+] [sodium [1-^13C] Ketoglutarate, sodium 2-Oxopentanedioate-5-^12C-1-^13C] |  |  | ~0.24
